PubChem BioAssay AID180 (DTP/NCI, 2004)
“And” between values parts separate entries of the source, which are not always exact repeats. Equal entries are not always repeated.

System: BDF1 mice, Adenocarcinoma 755 s.c., tumor weight T/C
Assay: NCI In Vivo Anticancer Drug Screen. Data for tumor model Adenocarcinoma 755 (subcutaneous) in B6D2F1 (BDF1) mice
Settings: endpoint: mean tumor weight, higher = larger tumour
In short: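 Transplantable tumor implanted; mice dosed with compound or vehicle; survival or tumor size recorded; ratio of treated to vehicle control reported.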

[1] = dose: 25.0 mg/kg/injection, schedule: Q01DX011 (ip), vehicle: carboxymethylcellulose (CMC)
[2] = dose: 50.0 mg/kg/injection, schedule: Q01DX011 (ip), vehicle: carboxymethylcellulose (CMC)
[3] = dose: 12.5 mg/kg/injection, schedule: Q01DX011 (ip), vehicle: carboxymethylcellulose (CMC)
[4] = dose: 75.0 mg/kg/injection, schedule: Q01DX011 (ip), vehicle: carboxymethylcellulose (CMC)
[5] = dose: 50.0 mg/kg/injection, schedule: Q01DX011 (ip), vehicle: saline

CCNS(=O)(=O)c1ncnc2nc[nH]c12
T/C (dose: 6.0 mg/kg/injection, schedule: Q01DX011 (ip), vehicle: other): 94 % of control
T/C (dose: 6.2 mg/kg/injection, schedule: Q01DX011 (ip), vehicle: methylcellulose (MC)): 66 % of control
T/C (dose: 12.0 mg/kg/injection, schedule: Q01DX011 (ip), vehicle: other): 32 % of control
T/C (dose: 12.5 mg/kg/injection, schedule: Q01DX011 (ip), vehicle: methylcellulose (MC)): 36 % of control
T/C (dose: 25.0 mg/kg/injection, schedule: Q01DX011 (ip), vehicle: methylcellulose (MC)): 7 % of control and 10 % of control
T/C (dose: 25.0 mg/kg/injection, schedule: Q01DX011 (ip), vehicle: other): 15 % of control
T/C (dose: 50.0 mg/kg/injection, schedule: Q01DX011 (ip), vehicle: other): 5 % of control
T/C (dose: 100.0 mg/kg/injection, schedule: Q01DX011 (ip), vehicle: other): 10 % of control
T/C (dose: 150.0 mg/kg/injection, schedule: Q01DX011 (ip), vehicle: other): 5 % of control

ClCCn1cnc2c(SCc3ccccc3)ncnc21
T/C (dose: 0.5 mg/kg/injection, schedule: Q01DX011 (ip), vehicle: other): 115 % of control
T/C (dose: 0.5 mg/kg/injection, schedule: Q01DX011 (oral), vehicle: other): 98 % of control
T/C (dose: 1.0 mg/kg/injection, schedule: Q01DX011 (ip), vehicle: other): 72 % of control
T/C (dose: 1.0 mg/kg/injection, schedule: Q01DX011 (oral), vehicle: other): 79 % of control
T/C (dose: 2.0 mg/kg/injection, schedule: Q01DX011 (ip), vehicle: other): 67 % of control
T/C (dose: 2.0 mg/kg/injection, schedule: Q01DX011 (oral), vehicle: other): 72 % of control
T/C (dose: 4.0 mg/kg/injection, schedule: Q01DX011 (ip), vehicle: other): 36 % of control
T/C (dose: 4.0 mg/kg/injection, schedule: Q01DX011 (oral), vehicle: other): 40 % of control
T/C (dose: 8.0 mg/kg/injection, schedule: Q01DX011 (ip), vehicle: other): 3 % of control
T/C (dose: 15.0 mg/kg/injection, schedule: Q01DX011 (ip), vehicle: other): 3 % of control
T/C (dose: 15.0 mg/kg/injection, schedule: Q01DX011 (oral), vehicle: other): 7 % of control
T/C [1]: 1 % of control
T/C [2]: 3 % of control

C[C@]12C=CC(=O)C=C1CC[C@H]1[C@@H]3C[C@@H](O)[C@](O)(C(=O)CO)[C@@]3(C)C[C@H](O)[C@@]12F
T/C (dose: 1.5 mg/kg/injection, schedule: Q01DX011 (sc), vehicle: steriod suspending solution): 98 % of control
T/C (dose: 3.0 mg/kg/injection, schedule: Q01DX011 (sc), vehicle: steriod suspending solution): 79 % of control
T/C (dose: 3.12 mg/kg/injection, schedule: Q01DX011 (sc), vehicle: steriod suspending solution): 77 % of control
T/C (dose: 6.0 mg/kg/injection, schedule: Q01DX011 (sc), vehicle: steriod suspending solution): 41 % of control
T/C (dose: 12.5 mg/kg/injection, schedule: Q01DX011 (sc), vehicle: steriod suspending solution): 32 % of control and 44 % of control and 53 % of control

CCCCCn1cnc2c(=S)nc(N)[nH]c21
T/C (dose: 3.1 mg/kg/injection, schedule: Q01DX011 (ip), vehicle: carboxymethylcellulose (CMC)): 112 % of control
T/C (dose: 6.2 mg/kg/injection, schedule: Q01DX011 (ip), vehicle: carboxymethylcellulose (CMC)): 76 % of control
T/C [3]: 28 % of control
T/C [1]: 10 % of control
T/C [4]: 2 % of control

Clc1ncnc2c1ncn2C1CCCCC1
T/C (dose: 6.25 mg/kg/injection, schedule: Q01DX011 (ip), vehicle: carboxymethylcellulose (CMC)): 91 % of control
T/C [3]: 73 % of control
T/C [1]: 81 % of control

C[N+](C)(C)c1ncnc2nc[nH]c12
T/C (dose: 1.25 mg/kg/injection, schedule: Q01DX011 (ip), vehicle: saline): 89 % of control and 77 % of control
T/C (dose: 2.5 mg/kg/injection, schedule: Q01DX011 (ip), vehicle: saline): 61 % of control and 75 % of control and 86 % of control
T/C (dose: 11.25 mg/kg/injection, schedule: Q01DX011 (ip), vehicle: saline): 44 % of control
T/C (dose: 20.0 mg/kg/injection, schedule: Q01DX011 (ip), vehicle: saline): 6 % of control and 12 % of control
T/C (dose: 22.5 mg/kg/injection, schedule: Q01DX011 (ip), vehicle: saline): 3 % of control
T/C (dose: 40.0 mg/kg/injection, schedule: Q01DX011 (ip), vehicle: saline): 1 % of control and 3 % of control
T/C (dose: 45.0 mg/kg/injection, schedule: Q01DX011 (ip), vehicle: saline): 1 % of control
T/C (dose: 80.0 mg/kg/injection, schedule: Q01DX011 (ip), vehicle: saline): 1 % of control and 4 % of control
T/C (dose: 90.0 mg/kg/injection, schedule: Q01DX011 (ip), vehicle: saline): 1 % of control
T/C (dose: 160.0 mg/kg/injection, schedule: Q01DX011 (ip), vehicle: saline): 1 % of control and 3 % of control

CN(C)[C@@H]1C(=O)C(C(=O)NCNCCCC(=O)O)=C(O)[C@@]2(O)C(=O)C3=C(O)c4c(O)cccc4[C@@](C)(O)[C@H]3C[C@@H]12
T/C (dose: 87.5 mg/kg/injection, schedule: Q01DX011 (ip), vehicle: saline): 106 % of control and 115 % of control
T/C (dose: 175.0 mg/kg/injection, schedule: Q01DX011 (ip), vehicle: saline): 54 % of control and 78 % of control
T/C (dose: 350.0 mg/kg/injection, schedule: Q01DX011 (ip), vehicle: saline): 51 % of control and 52 % of control

C/C(=N\NC(=O)c1ccncc1)c1ccc(Br)cc1
T/C (dose: 30.0 mg/kg/injection, schedule: Q01DX011 (ip), vehicle: methylcellulose (MC)): 44 % of control and 49 % of control
T/C (dose: 120.0 mg/kg/injection, schedule: Q01DX011 (ip), vehicle: methylcellulose (MC)): 48 % of control and 50 % of control
T/C (dose: 240.0 mg/kg/injection, schedule: Q01DX011 (ip), vehicle: methylcellulose (MC)): 32 % of control and 52 % of control
T/C (dose: 500.0 mg/kg/injection, schedule: Q01DX011 (ip), vehicle: methylcellulose (MC)): 54 % of control

COCC1OC2OC3C(COC)OC(OC4C(COC)OC(OC5C(COC)OC(OC6C(COC)OC(OC7C(COC)OC(OC8C(COC)OC(OC1C(O)C2O)C(O)C8O)C(O)C7O)C(O)C6O)C(O)C5O)C(O)C4O)C(O)C3O (stereo not drawn) (tested in a mixture with another compound)
T/C (dose: 3.12 mg/kg/injection, schedule: Q01DX011 (ip), vehicle: Klucel (hydroxypropylcellulose) (HPC)): 87 % of control
T/C (dose: 6.25 mg/kg/injection, schedule: Q01DX011 (ip), vehicle: Klucel (hydroxypropylcellulose) (HPC)): 97 % of control
T/C (dose: 12.5 mg/kg/injection, schedule: Q01DX011 (ip), vehicle: Klucel (hydroxypropylcellulose) (HPC)): 66 % of control
T/C (dose: 25.0 mg/kg/injection, schedule: Q01DX011 (ip), vehicle: Klucel (hydroxypropylcellulose) (HPC)): 95 % of control
T/C (dose: 50.0 mg/kg/injection, schedule: Q01DX011 (ip), vehicle: Klucel (hydroxypropylcellulose) (HPC)): 87 % of control
T/C (dose: 100.0 mg/kg/injection, schedule: Q01DX011 (ip), vehicle: Klucel (hydroxypropylcellulose) (HPC)): 51 % of control
T/C (dose: 200.0 mg/kg/injection, schedule: Q01DX011 (ip), vehicle: Klucel (hydroxypropylcellulose) (HPC)): 104 % of control
T/C (dose: 400.0 mg/kg/injection, schedule: Q01DX011 (ip), vehicle: Klucel (hydroxypropylcellulose) (HPC)): 71 % of control

CC1CN1P(=O)(Oc1ccccc1)N1CC1C (stereo not drawn)
T/C (dose: 12.5 mg/kg/injection, schedule: Q01DX011 (ip), vehicle: saline): 89 % of control and 106 % of control
T/C (dose: 25.0 mg/kg/injection, schedule: Q01DX011 (ip), vehicle: saline): 90 % of control and 78 % of control
T/C [5]: 42 % of control and 50 % of control

CCCCN(C)N=Nc1ccc(C(N)=O)cc1
T/C (dose: 16.0 mg/kg/injection, schedule: Q01DX011 (ip), vehicle: carboxymethylcellulose (CMC)): 14 % of control
T/C (dose: 31.0 mg/kg/injection, schedule: Q01DX011 (ip), vehicle: carboxymethylcellulose (CMC)): 27 % of control
T/C [2]: 25 % of control
T/C [4]: 14 % of control

O=c1[nH]cc(C(F)(F)F)c(=O)[nH]1
T/C [5]: 53 % of control
T/C (dose: 100.0 mg/kg/injection, schedule: Q01DX011 (ip), vehicle: saline): 65 % of control
T/C (dose: 200.0 mg/kg/injection, schedule: Q01DX011 (ip), vehicle: saline): 38 % of control and 57 % of control
T/C (dose: 300.0 mg/kg/injection, schedule: Q01DX011 (ip), vehicle: saline): 40 % of control and 56 % of control
T/C (dose: 400.0 mg/kg/injection, schedule: Q01DX011 (ip), vehicle: saline): 32 % of control and 34 % of control
T/C (dose: 500.0 mg/kg/injection, schedule: Q01DX011 (ip), vehicle: saline): 56 % of control and 65 % of control
T/C (dose: 600.0 mg/kg/injection, schedule: Q01DX011 (ip), vehicle: saline): 37 % of control

CCSc1nc(N)nc2c1ncn2C1OC(CO)C(O)C1O (stereo not drawn)
T/C (dose: 9.3 mg/kg/injection, schedule: Q01DX011 (ip), vehicle: methylcellulose (MC)): 55 % of control
T/C (dose: 18.7 mg/kg/injection, schedule: Q01DX011 (ip), vehicle: methylcellulose (MC)): 39 % of control
T/C (dose: 37.5 mg/kg/injection, schedule: Q01DX011 (ip), vehicle: methylcellulose (MC)): 3 % of control
T/C (dose: 75.0 mg/kg/injection, schedule: Q01DX011 (ip), vehicle: methylcellulose (MC)): 4 % of control
